Results published in ChEMBL document CHEMBL1201862, “PubChem BioAssay data set” (2004).
Several values for one entry are separate records, joined by “and”; a condition that tells them apart may be missing. Equal entries are not always repeated.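 Step 1: Grow cells in 96-well plates. Step 2: Expose to compound for 48 hours at 5 concentrations. Step 3: Interpolate endpoints linearly; if unreached, use highest concentration. GI50 marks 50% less growth.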 Activity calls are given as the source filed them. Rule as the data show it: active = GI50 up to about 1.1 µM and inactive = higher.

Key:
Assay in all cases: inhibition of tumour cell growth, NCI panel, 48 h
DMS-273 = test system: DMS-273
OVCAR-5 = test system: OVCAR-5
SNB-19 = test system: SNB-19
MOLT-4 = test system: MOLT-4
EKVX = test system: EKVX
COLO 205 = test system: COLO 205
CAKI-1 = test system: CAKI-1
HCT-15 = test system: HCT-15
LOX IMVI = test system: LOX IMVI
DMS-114 = test system: DMS-114
SF-539 = test system: SF-539
IGROV-1 = test system: IGROV-1
SF-295 = test system: SF-295
HT-29 = test system: HT-29
SF-268 = test system: SF-268
UACC-62 = test system: UACC-62
SW-620 = test system: SW-620
SN12C = test system: SN12C
UO-31 = test system: UO-31
M14 = test system: M14
TK-10 = test system: TK-10
SK-OV-3 = test system: SK-OV-3
SNB-75 = test system: SNB-75
NCI-H226 = test system: NCI-H226
M19-MEL = test system: M19-MEL
A549 = test system: A549
OVCAR-8 = test system: OVCAR-8
OVCAR-3 = test system: OVCAR-3
NCI-H23 = test system: NCI-H23
NCI-H522 = test system: NCI-H522
XF498 = test system: XF498
HL-60 = test system: HL-60
K562 = test system: K562
SK-MEL-28 = test system: SK-MEL-28
SK-MEL-5 = test system: SK-MEL-5
UACC-257 = test system: UACC-257
KM12 = test system: KM12
RXF 393 = test system: RXF 393
RPMI-8226 = test system: RPMI-8226
CCRF-CEM = test system: CCRF-CEM
MCF7 = test system: MCF7
786-0 = test system: 786-0
HCC 2998 = test system: HCC 2998
OVCAR-4 = test system: OVCAR-4
PC-3 = test system: PC-3
U-251 = test system: U-251
HOP-92 = test system: HOP-92
HOP-62 = test system: HOP-62
BT-549 = test system: BT-549
SK-MEL-2 = test system: SK-MEL-2
A498 = test system: A498
MDA-MB-435 = test system: MDA-MB-435
SR = test system: SR
T47D = test system: T47D
MDA-MB-231 = test system: MDA-MB-231
MDA-N = test system: MDA-N
DU-145 = test system: DU-145
Hs-578T = test system: Hs-578T
NCI-H460 = test system: NCI-H460
ACHN = test system: ACHN
HCT-116 = test system: HCT-116
NCI/ADR-RES = test system: NCI/ADR-RES
Malme-3M = test system: Malme-3M

SMILES: O=c1[nH]c(=O)n([C@H]2C[C@H](O)[C@@H](CO)O2)cc1F [FLOXURIDINE]
- GI50 (DMS-273): 0.319 µM (active)
- GI50 (OVCAR-5): 103 µM (inactive) and > 89.9 µM (inactive)

SMILES: Nc1ccc([C@H]2C(=O)N[C@H]3CCC[C@H]32)cc1
- GI50 (SNB-19): > 100 µM (inactive)
- GI50 (MOLT-4): > 100 µM (inactive)
- GI50 (EKVX): > 100 µM (inactive)
- GI50 (COLO 205): > 100 µM (inactive)
- GI50 (CAKI-1): > 100 µM (inactive)
- GI50 (HCT-15): > 100 µM
- GI50 (LOX IMVI): > 100 µM (inactive)
- GI50 (DMS-114): > 100 µM (inactive)
- GI50 (SF-539): > 100 µM (inactive)
- GI50 (IGROV-1): > 100 µM (inactive)
- GI50 (SF-295): > 100 µM (inactive)
- GI50 (HT-29): > 100 µM (inactive)
- GI50 (SF-268): > 100 µM (inactive)
- GI50 (UACC-62): > 100 µM (inactive)
- GI50 (DMS-273): > 100 µM (inactive)
- GI50 (SW-620): > 100 µM (inactive)
- GI50 (SN12C): > 100 µM (inactive)
- GI50 (UO-31): > 100 µM (inactive)
- GI50 (M14): > 100 µM (inactive)
- GI50 (TK-10): > 100 µM (inactive)
- GI50 (SK-OV-3): > 100 µM (inactive)
- GI50 (SNB-75): > 100 µM (inactive)
- GI50 (NCI-H226): > 100 µM (inactive)
- GI50 (M19-MEL): > 100 µM (inactive)
- GI50 (A549): > 100 µM (inactive)
- GI50 (OVCAR-8): > 100 µM (inactive)
- GI50 (OVCAR-3): > 100 µM (inactive)
- GI50 (NCI-H23): > 100 µM (inactive)
- GI50 (NCI-H522): > 100 µM (inactive)
- GI50 (XF498): > 100 µM (inactive)
- GI50 (HL-60): > 100 µM (inactive)
- GI50 (K562): > 100 µM (inactive)
- GI50 (SK-MEL-28): > 100 µM (inactive)
- GI50 (SK-MEL-5): > 100 µM (inactive)
- GI50 (UACC-257): > 100 µM (inactive)
- GI50 (KM12): > 100 µM (inactive)
- GI50 (RXF 393): > 100 µM (inactive)
- GI50 (RPMI-8226): > 100 µM (inactive)
- GI50 (CCRF-CEM): > 100 µM (inactive)

SMILES: O=C1Oc2ccccc2C(=O)/C1=C/N1C(=O)N/C(=C\c2ccccc2O)C1=O
- GI50 (SNB-19): > 100 µM (inactive)
- GI50 (MOLT-4): 41.2 µM (inactive)
- GI50 (MCF7): 61.1 µM (inactive)
- GI50 (EKVX): > 67.8 µM (inactive)
- GI50 (COLO 205): 62.5 µM (inactive)
- GI50 (CAKI-1): 79.4 µM (inactive)
- GI50 (HCT-15): 39.8 µM
- GI50 (786-0): 68.7 µM (inactive)
- GI50 (HCC 2998): > 57.4 µM (inactive)
- GI50 (LOX IMVI): 34.1 µM (inactive)
- GI50 (SF-539): 59.8 µM (inactive)
- GI50 (OVCAR-4): 55.3 µM (inactive)
- GI50 (IGROV-1): 48.8 µM (inactive)
- GI50 (PC-3): 43.6 µM (inactive)
- GI50 (SF-295): > 71 µM (inactive)
- GI50 (U-251): 57.7 µM (inactive)
- GI50 (HOP-92): 11 µM (inactive)
- GI50 (HOP-62): 71.3 µM (inactive)
- GI50 (HT-29): 54.7 µM (inactive)
- GI50 (BT-549): 45.4 µM (inactive)
- GI50 (SF-268): > 81.1 µM (inactive)
- GI50 (UACC-62): 36.9 µM (inactive)
- GI50 (SK-MEL-2): > 56.9 µM (inactive)
- GI50 (A498): 42.6 µM (inactive)
- GI50 (SW-620): > 90.8 µM (inactive)
- GI50 (MDA-MB-435): > 79.3 µM (inactive)
- GI50 (SR): 32.3 µM (inactive)
- GI50 (SN12C): 53.6 µM (inactive)
- GI50 (T47D): 34.2 µM (inactive)
- GI50 (UO-31): 39 µM (inactive)
- GI50 (M14): 66.4 µM (inactive)
- GI50 (TK-10): 60.5 µM (inactive)
- GI50 (SK-OV-3): > 62.7 µM (inactive)
- GI50 (MDA-MB-231): 36.9 µM (inactive)
- GI50 (SNB-75): > 78.5 µM (inactive)
- GI50 (NCI-H226): 81.1 µM (inactive)
- GI50 (MDA-N): 60.7 µM (inactive)
- GI50 (OVCAR-5): > 100 µM (inactive)
- GI50 (A549): 58.9 µM (inactive)
- GI50 (DU-145): 46.3 µM (inactive)
- GI50 (OVCAR-8): 58.1 µM (inactive)
- GI50 (OVCAR-3): 32.7 µM (inactive)
- GI50 (Hs-578T): > 53.1 µM (inactive)
- GI50 (NCI-H23): 59.8 µM (inactive)
- GI50 (NCI-H522): 55.5 µM (inactive)
- GI50 (HL-60): 60.3 µM (inactive)
- GI50 (K562): 54.7 µM (inactive)
- GI50 (SK-MEL-28): > 84.9 µM (inactive)
- GI50 (NCI-H460): 35.2 µM (inactive)
- GI50 (ACHN): 47.6 µM (inactive)
- GI50 (HCT-116): 36.6 µM (inactive)
- GI50 (SK-MEL-5): 44.6 µM (inactive)
- GI50 (NCI/ADR-RES): 65.3 µM (inactive)
- GI50 (UACC-257): 67.5 µM (inactive)
- GI50 (KM12): 56.8 µM (inactive)
- GI50 (RXF 393): 37.5 µM (inactive)
- GI50 (RPMI-8226): 43 µM (inactive)
- GI50 (Malme-3M): > 100 µM (inactive)
- GI50 (CCRF-CEM): > 100 µM (inactive)
